# Experimental data published in PubChem BioAssay (NCI).
#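 Compound exposure: 48 hours, 5 concentrations, 96-well plates. GI50 is the concentration that inhibits growth by half. The concentration for full growth arrest is given as TGI.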
# Experiments:
# Assay in all cases: growth of human tumour cells (NCI), 48 h
# MDA-MB-231 breast = tested on: MDA-MB-231 breast
# NCI-H226 lung = tested on: NCI-H226 lung
# SK-MEL-5 melanoma = tested on: SK-MEL-5 melanoma
# U251 CNS = tested on: U251 CNS
# ACHN renal = tested on: ACHN renal
# EKVX NSCLC = tested on: EKVX NSCLC
# SW-620 colon = tested on: SW-620 colon
# UO-31 renal = tested on: UO-31 renal
# SNB-75 CNS = tested on: SNB-75 CNS
# OVCAR-8 ovarian = tested on: OVCAR-8 ovarian
# NCI/ADR-RES ovarian = tested on: NCI/ADR-RES ovarian
# MDA-MB-435 = tested on: MDA-MB-435
# T-47D breast = tested on: T-47D breast
# OVCAR-3 ovarian = tested on: OVCAR-3 ovarian
# SF-539 CNS = tested on: SF-539 CNS
# TK-10 renal = tested on: TK-10 renal
# UACC-257 melanoma = tested on: UACC-257 melanoma
# SF-295 CNS = tested on: SF-295 CNS
# HCC-2998 colon = tested on: HCC-2998 colon
# CCRF-CEM leukemia = tested on: CCRF-CEM leukemia
# HOP-62 NSCLC = tested on: HOP-62 NSCLC
# 786-0 renal = tested on: 786-0 renal
# UACC-62 melanoma = tested on: UACC-62 melanoma
# A549 NSCLC = tested on: A549 NSCLC
# SNB-19 CNS = tested on: SNB-19 CNS
# M14 melanoma = tested on: M14 melanoma
# SR leukemia = tested on: SR leukemia
# OVCAR-4 ovarian = tested on: OVCAR-4 ovarian
# MDA-MB-468 breast = tested on: MDA-MB-468 breast
# RPMI-8226 leukemia = tested on: RPMI-8226 leukemia
# BT-549 breast = tested on: BT-549 breast
# KM12 colon = tested on: KM12 colon
# HCT-15 colon = tested on: HCT-15 colon
# K-562 leukemia = tested on: K-562 leukemia
# SN12C renal = tested on: SN12C renal
# NCI-H522 lung = tested on: NCI-H522 lung
# CAKI-1 renal = tested on: CAKI-1 renal
# SK-OV-3 ovarian = tested on: SK-OV-3 ovarian
# SF-268 CNS = tested on: SF-268 CNS
# HCT-116 colon = tested on: HCT-116 colon
# HT29 colon = tested on: HT29 colon
# COLO 205 colon = tested on: COLO 205 colon
# HS 578T breast = tested on: HS 578T breast
# NCI-H460 lung = tested on: NCI-H460 lung
# HOP-92 NSCLC = tested on: HOP-92 NSCLC
# OVCAR-5 ovarian = tested on: OVCAR-5 ovarian
# SK-MEL-28 melanoma = tested on: SK-MEL-28 melanoma
# MALME-3M melanoma = tested on: MALME-3M melanoma
# LOX IMVI melanoma = tested on: LOX IMVI melanoma
# IGROV1 ovarian = tested on: IGROV1 ovarian
# NCI-H23 lung = tested on: NCI-H23 lung
# SK-MEL-2 melanoma = tested on: SK-MEL-2 melanoma
# MCF7 breast = tested on: MCF7 breast
# A498 renal = tested on: A498 renal
# DU-145 prostate = tested on: DU-145 prostate
# HL-60(TB) leukemia = tested on: HL-60(TB) leukemia
# MOLT-4 leukemia = tested on: MOLT-4 leukemia
# RXF 393 renal = tested on: RXF 393 renal
# PC-3 prostate = tested on: PC-3 prostate
compound,measurement,setting,value
C/C(=N\N=C\c1cc([N+](=O)[O-])ccc1Cl)c1ccc2c(c1)Nc1ccccc1S2,GI50,MDA-MB-231 breast,21.1 µM
same,TGI,MDA-MB-231 breast,63 µM
same,GI50,NCI-H226 lung,17.7 µM
same,TGI,NCI-H226 lung,> 100 µM
same,GI50,SK-MEL-5 melanoma,24.9 µM
same,TGI,SK-MEL-5 melanoma,> 100 µM
same,GI50,U251 CNS,8.36 µM
same,TGI,U251 CNS,23.9 µM
same,GI50,ACHN renal,2.87 µM
same,TGI,ACHN renal,8.59 µM
same,GI50,EKVX NSCLC,19.3 µM
same,TGI,EKVX NSCLC,79.8 µM
same,GI50,SW-620 colon,9.55 µM
same,TGI,SW-620 colon,24.5 µM
same,GI50,UO-31 renal,11.2 µM
same,TGI,UO-31 renal,25.4 µM
same,GI50,SNB-75 CNS,12.6 µM
same,TGI,SNB-75 CNS,33.4 µM
same,GI50,OVCAR-8 ovarian,12.2 µM
same,TGI,OVCAR-8 ovarian,35.8 µM
same,GI50,NCI/ADR-RES ovarian,17.9 µM
same,TGI,NCI/ADR-RES ovarian,65.5 µM
same,GI50,MDA-MB-435,22.9 µM
same,TGI,MDA-MB-435,> 100 µM
same,GI50,T-47D breast,4.3 µM
same,TGI,T-47D breast,25.8 µM
same,GI50,OVCAR-3 ovarian,11.3 µM
same,TGI,OVCAR-3 ovarian,24 µM
same,GI50,SF-539 CNS,16.9 µM
same,TGI,SF-539 CNS,35.2 µM
same,GI50,TK-10 renal,11.4 µM
same,TGI,TK-10 renal,24.9 µM
same,GI50,UACC-257 melanoma,23.6 µM
same,TGI,UACC-257 melanoma,> 100 µM
same,GI50,SF-295 CNS,13.5 µM
same,TGI,SF-295 CNS,35.1 µM
same,GI50,HCC-2998 colon,52.2 µM
same,TGI,HCC-2998 colon,> 100 µM
same,GI50,CCRF-CEM leukemia,11.4 µM
same,TGI,CCRF-CEM leukemia,> 100 µM
same,GI50,HOP-62 NSCLC,16.6 µM
same,TGI,HOP-62 NSCLC,39.8 µM
same,GI50,786-0 renal,12.4 µM
same,TGI,786-0 renal,27.6 µM
same,GI50,UACC-62 melanoma,29 µM
same,TGI,UACC-62 melanoma,> 100 µM
same,GI50,A549 NSCLC,7.56 µM
same,TGI,A549 NSCLC,31.8 µM
same,GI50,SNB-19 CNS,23.8 µM
same,TGI,SNB-19 CNS,> 100 µM
same,GI50,M14 melanoma,51.7 µM
same,TGI,M14 melanoma,> 100 µM
same,GI50,SR leukemia,13.5 µM
same,TGI,SR leukemia,81 µM
same,GI50,OVCAR-4 ovarian,3.12 µM
same,TGI,OVCAR-4 ovarian,11.8 µM
same,GI50,MDA-MB-468 breast,1.83 µM
same,TGI,MDA-MB-468 breast,18.6 µM
same,GI50,RPMI-8226 leukemia,20.6 µM
same,TGI,RPMI-8226 leukemia,> 100 µM
same,GI50,BT-549 breast,20.7 µM
same,TGI,BT-549 breast,> 100 µM
same,GI50,KM12 colon,35.8 µM
same,TGI,KM12 colon,> 100 µM
same,GI50,HCT-15 colon,19.2 µM
same,TGI,HCT-15 colon,> 100 µM
same,GI50,K-562 leukemia,16.8 µM
same,TGI,K-562 leukemia,> 100 µM
same,GI50,SN12C renal,6.86 µM
same,TGI,SN12C renal,28.5 µM
same,GI50,NCI-H522 lung,12.2 µM
same,TGI,NCI-H522 lung,41 µM
same,GI50,CAKI-1 renal,12.5 µM
same,TGI,CAKI-1 renal,27.7 µM
same,GI50,SK-OV-3 ovarian,14.9 µM
same,TGI,SK-OV-3 ovarian,45.1 µM
same,GI50,SF-268 CNS,26.3 µM
same,TGI,SF-268 CNS,> 100 µM
same,GI50,HCT-116 colon,3.36 µM
same,TGI,HCT-116 colon,15.3 µM
same,GI50,HT29 colon,26 µM
same,TGI,HT29 colon,> 100 µM
same,GI50,COLO 205 colon,18.3 µM
same,TGI,COLO 205 colon,> 100 µM
same,GI50,HS 578T breast,15 µM
same,TGI,HS 578T breast,58.3 µM
same,GI50,NCI-H460 lung,6.28 µM
same,TGI,NCI-H460 lung,21.4 µM
same,GI50,HOP-92 NSCLC,16.1 µM
same,TGI,HOP-92 NSCLC,89.5 µM
same,GI50,OVCAR-5 ovarian,28.4 µM
same,TGI,OVCAR-5 ovarian,> 100 µM
same,GI50,SK-MEL-28 melanoma,> 100 µM
same,TGI,SK-MEL-28 melanoma,> 100 µM
same,GI50,MALME-3M melanoma,19.1 µM
same,TGI,MALME-3M melanoma,> 100 µM
same,GI50,LOX IMVI melanoma,31.3 µM
same,TGI,LOX IMVI melanoma,> 100 µM
same,GI50,IGROV1 ovarian,23.6 µM
same,TGI,IGROV1 ovarian,> 100 µM
same,GI50,NCI-H23 lung,16.3 µM
same,TGI,NCI-H23 lung,45 µM
same,GI50,SK-MEL-2 melanoma,20.8 µM
same,TGI,SK-MEL-2 melanoma,83.1 µM
same,GI50,MCF7 breast,21.5 µM
same,TGI,MCF7 breast,> 100 µM
same,GI50,A498 renal,12.6 µM
same,TGI,A498 renal,27.6 µM
same,GI50,DU-145 prostate,34.4 µM
same,TGI,DU-145 prostate,> 100 µM
same,GI50,HL-60(TB) leukemia,24.2 µM
same,TGI,HL-60(TB) leukemia,> 100 µM
same,GI50,MOLT-4 leukemia,20.4 µM
same,TGI,MOLT-4 leukemia,> 100 µM
same,GI50,RXF 393 renal,16.6 µM
same,TGI,RXF 393 renal,94.5 µM
same,GI50,PC-3 prostate,38.4 µM
same,TGI,PC-3 prostate,> 100 µM
